From patent US12324812B2, “Glucopyranosyl derivatives and their uses” (SUNSHINE LAKE PHARMA CO., LTD., priority 2019, dated 2025)

Columns and labels:
human SGLT1 = human SGLT1 (Homo sapiens (Human), UniProt P13866); test: Test of inhibitory activity on SGLT1 (14C-AMG uptake in CHO cells expressing human SGLT1); type: cell-based; details: CHO cells expressing human SGLT1, 0.5 μM 14C-AMG, 37° C. 1 hour
Protocol: 1. Test of Inhibitory Activity on SGLT1
the following methods can be used to determine the inhibitory activity of the compounds described in the invention on SGLT-1.
mock-transfected FIP-in CHO cells (3×10^4) and CHO cells expressing human SGLT1 gene were seeded into 96-well plates respectively. The cells were incubated for 12 hours. Each well of the 96-well plate was washed with 150 μL of sodium-free buffer once. To each well was added 50 μL of sodium-containing buffer containing test compounds of different concentrations and 0.5 μM […]. The incubation mixture was incubated at 37° C. for 1 hour. To each well was added 150 μL of precooled sodium-free buffer to terminate the reaction. The cell pellet was washed with sodium-free buffer three times and the residual liquid in well was removed. To each well was added 20 μL of precooled 100 mM NaOH. The 96-well plate was vibrated at 900 rpm for 5 minutes. Scintillation fluid (80 μL) was added to each well which was then vibrated at 600 rpm for 5 minutes. The amount of 14C-AMG was quantitatively detected using liquid scintillation.

SD rats = test: Oral glucose tolerance test in SD rats; type: in vivo, rat; details: male SD rats, 0.1 mg/kg once by gavage, glucose 4.0 g/kg; decline rate of AUCGlu 0-60 min after sugar loading
Protocol: 2. Oral Glucose Tolerance Test and UrinaR^y Glucose Excretion Test
The following methods were used to evaluate the effects of the compounds of the invention on improving oral glucose tolerance and glycosuria excretion.
Test method: The weight and the fasting blood glucose levels of male SD rats were measured after an overnight 15-hour fast. The rats were grouped by their weights and fasting plasma glucose levels. Each test group was administered with the corresponding test compound once by gavage at a dose of 0.1 mg/Kg, and the blank control group was administered solvent. After 30 minutes, the blood glucose level (i.e. zeropoint blood glucose) of each group was measured, and then each group was immediately administered glucose (4.0 g/kg) once by gavage. The blood was drawn from the tail vein at 15, 30 and 60 minutes after glucose administration and the blood glucose concentrations of SD rats were measured continuously on blood-glucose meter. The decline rate of the area under the blood sugar curve within 60 minutes (AUCGlu 0-60 min) after sugar loading was calculated.
After blood glucose level at 60 min time point was measured, each group was placed in a metabolism cage, and the urine was collected during 1.5 hours to 24 hours and 24 hours to 48 hours after drug administration with the metabolism cage as the unit. The urine volume of each metabolism cage at each point was recorded. The urine was collected and centrifuged to obtain the supernatant. The […] had free access to food and water during the urine collection. The urine glucose concentration of SD rats at each time point was determined on automatic biochemical analyzer.

Chain of human SGLT1 (P13866 whole entry): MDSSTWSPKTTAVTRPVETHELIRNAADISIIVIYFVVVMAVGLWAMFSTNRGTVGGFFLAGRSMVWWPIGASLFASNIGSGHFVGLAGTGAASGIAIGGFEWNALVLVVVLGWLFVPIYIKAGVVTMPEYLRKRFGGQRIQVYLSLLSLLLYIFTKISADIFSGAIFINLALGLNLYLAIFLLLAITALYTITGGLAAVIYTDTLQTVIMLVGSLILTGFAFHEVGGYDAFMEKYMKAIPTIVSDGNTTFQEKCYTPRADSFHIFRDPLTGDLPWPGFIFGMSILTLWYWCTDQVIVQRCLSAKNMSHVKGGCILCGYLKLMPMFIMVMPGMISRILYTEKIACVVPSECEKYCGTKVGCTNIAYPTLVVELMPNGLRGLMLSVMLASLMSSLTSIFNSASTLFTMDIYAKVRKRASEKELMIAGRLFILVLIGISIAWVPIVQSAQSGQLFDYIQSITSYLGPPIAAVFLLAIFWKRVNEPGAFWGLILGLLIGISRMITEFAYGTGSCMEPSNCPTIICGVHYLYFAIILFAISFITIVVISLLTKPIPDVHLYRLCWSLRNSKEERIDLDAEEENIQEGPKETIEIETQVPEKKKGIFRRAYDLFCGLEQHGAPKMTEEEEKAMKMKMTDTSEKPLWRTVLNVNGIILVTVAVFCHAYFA

| IC50 (human SGLT1) [nM] | SMILES | hypoglycemic rate (SD rats) [%] |
| --- | --- | --- |
| 1.18 | Cc1ccc([C@]23OC[C@](CO)(O2)[C@@H](O)[C@H](O)[C@H]3O)cc1Cc1ccc(CCCC(=O)NC2(C(=O)NCCN(C)C)CCCCC2)cc1 [Example 4, N-(2-dimethylaminoethyl)-1-[4-[4-[[2-methyl-5-[(1S, 2S, 3S, 4R, 5S)-2,3,4,-trihydroxy-1-(hydroxymethyl)-6,8-dioxabicyclo [3.2.1]octane-5-yl]phenyl]methyl]phenyl]butyrylamino] cyclohexyl formamide] | 26.25 |
| 0.22 | CC[C@H]1O[C@@H](c2ccc(C)c(Cc3ccc(CCCC(=O)NC4(C(=O)NCCN(C)C)CCCCC4)cc3)c2)[C@H](O)[C@@H](O)[C@@H]1O [Example 1, N-(2-dimethylaminoethyl)-1-[4-[4-[[5-[(2S, 3R, 4S, 5S, 6R)-6-ethyl-3,4,5-trihydroxy-tetrahydropyran-2-yl]-2-methyl-phenyl]methyl]phenyl]butyrylamino] cyclohexyl formamide] | 31.28 |
| 0.25 | CCC[C@H]1O[C@@H](c2ccc(C)c(Cc3ccc(CCCC(=O)NC4(C(=O)NCCN(C)C)CCCCC4)cc3)c2)[C@H](O)[C@@H](O)[C@@H]1O [Example 3, N-(2-dimethylaminoethyl)-1-[4-[4-[[2-methyl-5-[(2S, 3R, 4S, 5S, 6R)-3,4,5-trihydroxy-6-propyl-tetrahydropyran-2-yl]phenyl]methyl]phenyl]butyrylamino] cyclohexylformamide] | 29.42 |
